Experimental data from ChEMBL document CHEMBL4725453, “Modulation of Androgen Receptor for Therapeutic Application in Cancer and Viral Infection” (ACS Med Chem Lett, 2020).

target: T1, Androgen receptor (Homo sapiens, UniProt P10275); test: Modulation of AR in human LNCAP cells transfected with PSA reporter gene assessed as inhibition of R1881-induced PSA luciferase activity pretreated for 1 hr followed by R1881 addition and measured after 24 hrs by luciferase assay; format: cell-based
T1 sequence (P10275 whole entry): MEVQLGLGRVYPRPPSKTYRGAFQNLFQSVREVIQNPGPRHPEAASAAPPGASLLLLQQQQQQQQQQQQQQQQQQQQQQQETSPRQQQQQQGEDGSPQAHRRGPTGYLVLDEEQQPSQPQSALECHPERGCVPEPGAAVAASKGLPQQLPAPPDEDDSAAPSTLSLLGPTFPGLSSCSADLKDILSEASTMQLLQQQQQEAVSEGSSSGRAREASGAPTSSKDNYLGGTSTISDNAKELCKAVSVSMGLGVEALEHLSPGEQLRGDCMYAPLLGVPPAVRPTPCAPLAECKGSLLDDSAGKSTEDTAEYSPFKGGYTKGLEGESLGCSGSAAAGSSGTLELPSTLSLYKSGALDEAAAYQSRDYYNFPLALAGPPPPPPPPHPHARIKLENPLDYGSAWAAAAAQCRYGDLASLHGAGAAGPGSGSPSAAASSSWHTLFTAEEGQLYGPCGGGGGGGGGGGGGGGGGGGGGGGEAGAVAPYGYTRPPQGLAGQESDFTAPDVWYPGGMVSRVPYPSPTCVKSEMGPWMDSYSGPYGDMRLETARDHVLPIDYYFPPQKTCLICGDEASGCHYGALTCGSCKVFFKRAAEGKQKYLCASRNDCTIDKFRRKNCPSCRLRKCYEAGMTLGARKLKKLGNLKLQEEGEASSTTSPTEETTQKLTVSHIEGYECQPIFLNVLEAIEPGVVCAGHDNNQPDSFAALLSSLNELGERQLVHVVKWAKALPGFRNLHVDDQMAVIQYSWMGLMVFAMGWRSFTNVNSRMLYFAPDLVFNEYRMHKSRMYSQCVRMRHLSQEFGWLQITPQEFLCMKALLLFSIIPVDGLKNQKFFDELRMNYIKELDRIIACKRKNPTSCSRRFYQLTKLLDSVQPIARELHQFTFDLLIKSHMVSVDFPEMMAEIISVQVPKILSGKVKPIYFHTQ

Structure (SMILES)	IC50
CC(C)(c1ccc(OCc2cnc(NS(C)(=O)=O)nc2)cc1)c1cc(Cl)c(OCCCl)c(C#N)c1	< 500 nM
Cc1nc(NS(C)(=O)=O)nc(COc2ccc(C(C)(C)c3cc(Cl)c(OCCCl)c(C#N)c3)cc2)c1C	< 500 nM
CC(C)(c1ccc(OCc2ccnc(NS(C)(=O)=O)n2)cc1)c1cc(F)c(OCCCl)c(Cl)c1	500 nM
CSc1nc(C)c(COc2ccc(C(C)(C)c3cc(Cl)c(OCCCl)c(C#N)c3)cc2)o1	< 500 nM
CC(C)S(=O)(=O)Nc1nc(COc2ccc(C(C)(C)c3cc(Cl)c(OCCCl)c(C#N)c3)cc2)co1	500 nM
CC(C)(c1ccc(OCc2ccnc(NS(C)(=O)=O)n2)cc1)c1cc(Cl)c(OCCCl)c(Cl)c1	< 500 nM
CC(C)(c1ccc(OCc2cnc(Cl)o2)cc1)c1cc(Cl)c(OCCCl)c(C#N)c1	< 500 nM
CC(C)S(=O)(=O)c1nc(COc2ccc(C(C)(C)c3cc(Cl)c(OCCCl)c(C#N)c3)cc2)co1	< 500 nM

Now from value to molecule:

IC50	Structure (SMILES)
< 500 nM	Cc1cnc(NS(C)(=O)=O)nc1COc1ccc(C(C)(C)c2cc(Cl)c(OCCCl)c(C#N)c2)cc1
< 500 nM	CC(C)(c1ccc(OCc2ncc(NS(C)(=O)=O)s2)cc1)c1cc(Cl)c(OCCCl)c(C#N)c1
< 500 nM	CC(C)(c1ccc(OCc2nc(NS(C)(=O)=O)cs2)cc1)c1cc(Cl)c(OCCCl)c(C#N)c1
< 500 nM	CC(C)(c1ccc(OCc2cnc(NS(C)(=O)=O)o2)cc1)c1cc(Cl)c(OCCCl)c(C#N)c1
